Values quoted from earlier work, collected in patent US8466103B2, “Exendin polypeptide linked to biotin, method for the preparation thereof and pharmaceutical composition comprising the same” (B&L Delipharm, Corp., priority 2008, dated 2013).

Target: Na-dependent multivitamin transport system
Details: small intestines; read-out: Affinity constant of the transport system for biotin; cited from earlier work

**Q.** For O=C(O)CCCC[C@@H]1SC[C@@H]2NC(=O)N[C@@H]21 [biotin], which Kd is on record?
**A.** Its Kd is roughly 2.6 nM.
